Test results: patent US7244718B2, “Water soluble prodrugs of hindered alcohols” (University of Kansas, priority 1998, dated 2007)

Experiment: Stability of the isolated free acid on standing at room temperature
Assay type: physicochemical
Conditions: isolated free acid (oil)
Method: To a solution of o-phosphonooxymethylpropofol dibenzyl ester (115 mg, 0.245 mmol) in methanol (10 mL) was added palladium on carbon (10%, 20 mg). This mixture was stirred under an atmosphere of hydrogen (1 atm) for 1.5 hour.
To a solution of O-phosphonooxymethyl-alpha-tocopherol dibenzyl ester (88 mg, 0.12 mmol) in tetrahydrofuran (10 mL) was added palladium on carbon (10%, 15 mg). The mixture was stirred under an atmosphere of hydrogen (1 atm) for 10 minutes (the reaction was complete after 5 minutes as judged by TLC). The catalyst was removed by filtration through Celite, the filtrate was evaporated at reduced pressure, and then dried in vacuo.

Row | SMILES | stability at room temperature
1 | CC(C)c1cccc(C(C)C)c1OCOP(=O)(O)O [Id, O-phosphonooxymethylpropofol] | unstable on standing at room temperature
2 | Cc1c(C)c2c(c(C)c1OCOP(=O)(O)O)CCC(C)(CCCC(C)CCCC(C)CCCC(C)C)O2 (stereo not drawn) [IIb, O-phosphonooxymethyl-alpha-tocopherol] | unstable at room temperature
